Test results: the NIST ThermoML archive (doi:10.1021/acs.jced.9b00074)
Numbers after ± are expanded uncertainties.

Assay: xn = mol fraction of the nth substance listed
Details: 100 kPa, Liquid; for viscosity: Falling or rolling sphere viscometry; for mass density: Vibrating tube method

CC12CC3CC(C1)CC(C)(C3)C2 [1,3-dimethyladamantane] + C1C[C@@H]2[C@H]3CC[C@H](C3)[C@@H]2C1
Details | mass density [kg/m3] | viscosity [mPa·s]
293.15 K, x2 = 0.0998 | 905.2 ± 0.55 | 3.715 ± 0.079
293.15 K, x2 = 0.2023 | 908.96 ± 0.55 | 3.67 ± 0.078
293.15 K, x2 = 0.2984 | 912.36 ± 0.56 | 3.623 ± 0.078
293.15 K, x2 = 0.3996 | 915.9 ± 0.57 | 3.555 ± 0.077
293.15 K, x2 = 0.4998 | 919.37 ± 0.58 | 3.474 ± 0.075
293.15 K, x2 = 0.5973 | 922.65 ± 0.59 | 3.388 ± 0.074
293.15 K, x2 = 0.7005 | 926.17 ± 0.61 | 3.293 ± 0.072
293.15 K, x2 = 0.8026 | 929.43 ± 0.63 | 3.2 ± 0.071
293.15 K, x2 = 0.9 | 932.64 ± 0.66 | 3.114 ± 0.069
298.15 K, x2 = 0.0998 | 901.59 ± 0.55 | 3.316 ± 0.071
298.15 K, x2 = 0.2023 | 905.3 ± 0.55 | 3.277 ± 0.07
298.15 K, x2 = 0.2984 | 908.68 ± 0.56 | 3.238 ± 0.069
298.15 K, x2 = 0.3996 | 912.18 ± 0.56 | 3.181 ± 0.068
298.15 K, x2 = 0.4998 | 915.61 ± 0.57 | 3.116 ± 0.067
298.15 K, x2 = 0.5973 | 918.86 ± 0.59 | 3.045 ± 0.066
298.15 K, x2 = 0.7005 | 922.34 ± 0.61 | 2.965 ± 0.065
298.15 K, x2 = 0.8026 | 925.59 ± 0.63 | 2.885 ± 0.064
298.15 K, x2 = 0.9 | 928.76 ± 0.66 | 2.814 ± 0.063
303.15 K, x2 = 0.0998 | 897.97 ± 0.55 | 2.977 ± 0.063
303.15 K, x2 = 0.2023 | 901.64 ± 0.55 | 2.947 ± 0.063
303.15 K, x2 = 0.2984 | 904.99 ± 0.55 | 2.915 ± 0.062
303.15 K, x2 = 0.3996 | 908.45 ± 0.56 | 2.867 ± 0.062
303.15 K, x2 = 0.4998 | 911.85 ± 0.57 | 2.81 ± 0.061
303.15 K, x2 = 0.5973 | 915.06 ± 0.59 | 2.75 ± 0.06
303.15 K, x2 = 0.7005 | 918.51 ± 0.6 | 2.68 ± 0.059
303.15 K, x2 = 0.8026 | 921.77 ± 0.63 | 2.618 ± 0.058
303.15 K, x2 = 0.9 | 924.88 ± 0.65 | 2.555 ± 0.057
308.15 K, x2 = 0.0998 | 894.36 ± 0.54 | 2.687 ± 0.057
308.15 K, x2 = 0.2023 | 897.98 ± 0.55 | 2.666 ± 0.057
308.15 K, x2 = 0.2984 | 901.29 ± 0.55 | 2.637 ± 0.057
308.15 K, x2 = 0.3996 | 904.71 ± 0.56 | 2.601 ± 0.056
308.15 K, x2 = 0.4998 | 908.08 ± 0.57 | 2.547 ± 0.055
308.15 K, x2 = 0.5973 | 911.26 ± 0.58 | 2.495 ± 0.054
308.15 K, x2 = 0.7005 | 914.67 ± 0.6 | 2.438 ± 0.053
308.15 K, x2 = 0.8026 | 917.91 ± 0.62 | 2.385 ± 0.053
308.15 K, x2 = 0.9 | 921 ± 0.65 | 2.332 ± 0.052
313.15 K, x2 = 0.0998 | 890.74 ± 0.54 | 2.44 ± 0.052
313.15 K, x2 = 0.2023 | 894.32 ± 0.55 | 2.422 ± 0.052
313.15 K, x2 = 0.2984 | 897.59 ± 0.55 | 2.394 ± 0.051
313.15 K, x2 = 0.3996 | 900.98 ± 0.56 | 2.363 ± 0.051
313.15 K, x2 = 0.4998 | 904.31 ± 0.57 | 2.319 ± 0.05
313.15 K, x2 = 0.5973 | 907.45 ± 0.58 | 2.275 ± 0.05
313.15 K, x2 = 0.7005 | 910.84 ± 0.6 | 2.227 ± 0.049
313.15 K, x2 = 0.8026 | 914.04 ± 0.62 | 2.179 ± 0.048
313.15 K, x2 = 0.9 | 917.12 ± 0.65 | 2.136 ± 0.048
318.15 K, x2 = 0.0998 | 887.12 ± 0.54 | 2.222 ± 0.047
318.15 K, x2 = 0.2023 | 890.65 ± 0.54 | 2.209 ± 0.047
318.15 K, x2 = 0.2984 | 893.89 ± 0.55 | 2.185 ± 0.047
318.15 K, x2 = 0.3996 | 897.24 ± 0.56 | 2.157 ± 0.046
318.15 K, x2 = 0.4998 | 900.53 ± 0.57 | 2.121 ± 0.046
318.15 K, x2 = 0.5973 | 903.65 ± 0.58 | 2.081 ± 0.045
318.15 K, x2 = 0.7005 | 906.99 ± 0.6 | 2.042 ± 0.045
318.15 K, x2 = 0.8026 | 910.17 ± 0.62 | 2.002 ± 0.044
318.15 K, x2 = 0.9 | 913.23 ± 0.65 | 1.964 ± 0.044
323.15 K, x2 = 0.0998 | 883.5 ± 0.54 | 2.032 ± 0.043
323.15 K, x2 = 0.2023 | 886.99 ± 0.54 | 2.02 ± 0.043
323.15 K, x2 = 0.2984 | 890.18 ± 0.55 | 2.001 ± 0.043
323.15 K, x2 = 0.3996 | 893.49 ± 0.55 | 1.978 ± 0.043
323.15 K, x2 = 0.4998 | 896.75 ± 0.56 | 1.946 ± 0.042
323.15 K, x2 = 0.5973 | 899.83 ± 0.58 | 1.915 ± 0.042
323.15 K, x2 = 0.7005 | 903.15 ± 0.59 | 1.879 ± 0.041
323.15 K, x2 = 0.8026 | 906.3 ± 0.62 | 1.844 ± 0.041
323.15 K, x2 = 0.9 | 909.33 ± 0.64 | 1.812 ± 0.04
328.15 K, x2 = 0.0998 | 879.87 ± 0.54 | 1.867 ± 0.04
328.15 K, x2 = 0.2023 | 883.31 ± 0.54 | 1.857 ± 0.04
328.15 K, x2 = 0.2984 | 886.47 ± 0.55 | 1.839 ± 0.039
328.15 K, x2 = 0.3996 | 889.74 ± 0.55 | 1.819 ± 0.039
328.15 K, x2 = 0.4998 | 892.97 ± 0.56 | 1.794 ± 0.039
328.15 K, x2 = 0.5973 | 896.02 ± 0.58 | 1.764 ± 0.038
328.15 K, x2 = 0.7005 | 899.3 ± 0.59 | 1.734 ± 0.038
328.15 K, x2 = 0.8026 | 902.43 ± 0.62 | 1.704 ± 0.038
328.15 K, x2 = 0.9 | 905.43 ± 0.64 | 1.677 ± 0.037
333.15 K, x2 = 0.0998 | 876.23 ± 0.53 | 1.719 ± 0.037
333.15 K, x2 = 0.2023 | 879.65 ± 0.54 | 1.714 ± 0.037
333.15 K, x2 = 0.2984 | 882.76 ± 0.54 | 1.696 ± 0.036
333.15 K, x2 = 0.3996 | 885.99 ± 0.55 | 1.679 ± 0.036
333.15 K, x2 = 0.4998 | 889.18 ± 0.56 | 1.657 ± 0.036
333.15 K, x2 = 0.5973 | 892.2 ± 0.57 | 1.631 ± 0.036
333.15 K, x2 = 0.7005 | 895.45 ± 0.59 | 1.605 ± 0.035
333.15 K, x2 = 0.8026 | 898.54 ± 0.61 | 1.58 ± 0.035
333.15 K, x2 = 0.9 | 901.52 ± 0.64 | 1.557 ± 0.035
